Laboratory results as given in US20050222036A1, “Peptide compositions with effects on blood glucose” (priority 2000, published 2005).
Marks after values point to notes of the source that are not given here.

Tests used:
rats [1] = experiment: Elevated plus maze test (anxiogenic effects); format: in vivo, rat; design: TIME Open Arm / TIME Closed Arm: unit not given here
Procedure: (§1) The elevated plus maze consists of two open and two closed arms; time spent and the number of entries into open arms are indicators of neophobic anxiety in rats. The number of entries and total time spent in the open arms were tabulated over 5 min by an observer blind to the experimental condition. Animals falling off the apparatus were eliminated from the study. For the intracerebroventricular (i.c.v.) studies, rats were implanted with a cannula (22 gauge, Plastics One, Roanoke, Va.) into the left ventricle (AP 0.8 mm, ML 1.6 mm, DV 3.5 mm from dura) then allowed at least 3-4 days to recover. The peptides were infused in a total volume of 2 μl (1 μl min −1) 25 min before training with two trials per day for 5 days. The visual platform test was conducted after the last training trial on day 5 in a different location of the pool.

rats [2] = experiment: Passive avoidance (PA), associative learning in rats; format: in vivo, rat
Procedure: Passive avoidance was performed in an apparatus (MED Associates Inc., St. Albans, Vt.) consisting of one dark chamber and one light chamber that can be divided by a guillotine door. The training procedure was executed as previously described (N. Venable et al. Psychopharmacology 100, 215 (1990)). Rats were administered a 1.0 mA shock for 3 sec, mice a 0.5 mA shock for 5 sec. Retention tests were performed either at 1, 3 or 7 days post-pairing. Maximum latency was 600 sec for rats, 300 sec for mice.
In the instant invention, rats were pretreated intranasally with one of three dose levels (10 μg/kg, 30 μg/kg, or 60 μg/kg) of Gilatide in 5% β cyclodextrin or an octamer having a sequence homology to CRH and urocortin. […] A control group received vehicle (5% cyclodextrin) alone. With three dose levels for each of the peptides studied, a total of seven (7) groups were employed, each group having 5-8 rats, for a total of 50 rats tested. On the first day of conditioning, the pretreated rats (N=7-13) were administered a single foot shock trial (0.1 mA over 3 seconds) after entering the dark compartment. The animals were replaced in the test apparatus and latencies again were measured on Days 1, 3, 7, and 21 following the aversive stimulus.
Rats were pretreated with either […] 10 μg/kg Gilatide in 5% β cyclodextrin or vehicle by one of three routes of administration: intranasally, subcutaneously, or intraperitoneally. On Day 0, the rats (N=7-13) were conditioned by administration of a single foot shock trial (0.1 mA over 3 seconds) after entry into the dark compartment of a passive avoidance apparatus (the same passive avoidance chamber used in the first series of experiments). At 24 hours (Day 1) following the initial test, and delivery of the single shock, the animals were replaced in the test apparatus and latency again measured. (FIG. 7)
Rates (N=5-10) were pretreated intranasally with one of five dose levels (0.1 μg/kg, 1 μg/kg, 3 μg/kg, 30 μg/kg or 60 μg/kg) of Gilatide in 5% β cyclodextrin, vehicle (5% cyclodextrin), or Nicotine (0.3 mg/kg, subcutaneously). On Day 0, the rats were conditioned by administration of a single foot shock trial (0.1 mA over 3 seconds) after entry into the dark compartment of a passive avoidance apparatus (the same passive avoidance chamber used in the other experiments). The preconditioned rats were retested on Days 1, 3, 7, and 21.
The effect of Gilatide was tested on memory consolidation by administering the peptide after shock testing. Rats (N=7-13) were preconditioned by administering a single foot shock trial (0.1 mA over 3 seconds) after entering the dark compartment of a passive avoidance apparatus. Twenty (20) minutes after the conditioning session, one group of rats was administered 10 μg/kg of Gilatide intranasally (TRN-TXT). Another group of rats (TXT-DLY-TRN) was administered this same dose of Gilatide 24 hours after the conditioning session. Both treatment groups were returned to the test apparatus 24 hours following treatment and latencies were again measured. […] (FIG. 13)
The effects of Gilatide when used with or without an Exendin-4 antagonist were observed and measured. Rats (N=6-13) were pretreated with either 10 μg/kg or 20 μg/kg of Gilatide with or without an Exendin-4 antagonist (10 μg/kg). A control group was administered vehicle alone. The pretreated rats were conditioned on Day 0 by administration of a single foot shock trial (0.1 mA over 3 seconds) after entry into the dark compartment of a passive avoidance apparatus (the same passive avoidance chamber used in the other experiments). The preconditioned rats were retested on 24 hours later. […] (FIG. 14)
Twenty-four hours later the rats were returned to the apparatus and retested. […] (FIG. 15)

rats [3] = experiment: Morris Water Maze (MWM), spatial learning in rats; format: in vivo, rat; conditions: for acquisition of spatial learning: intranasal (arecoline s.c.), four trials
Procedure: Spatial learning was assessed using the Morris Water Maze (Morris et al. Nature, 1982, 297: 681). Information was relayed via a tracker (HSV Image, Hampton, UK) to a personal computer, which was quantified by a specialized computer program (Water 2020, Hampton, UK). The acquisition study was performed as described previously. Animals were anaesthetized with isofluorane then administered peptide intra-nasally 20 min before testing. Rats were given four training trials. 48 h after training, a retention test was performed: rats were allowed to find the hidden platform for one trial. Mice initially had six trials without treatment to habituate them to the procedure. The following day, they were administered vehicle or [Ser(2)]exendin(1-9) (SEQ ID NO:1) and trained for an additional four trials with the platform in a new location. For a retention test, mice were given one trial to locate the platform the next day. Latency to find the platform was considered a measure of retention of spatial learning.
as §1
In another series of experiments, rats (N=15-16) were pretreated with either Gilatide (10 μg/kg, 30 μg/kg, or 60 μg/kg) or vehicle and then trained for four trials in a Morris Water Maze. Two days following training, the rats were retested. Latency to find a submerged platform in the Morris Water Maze paradigm was measured.
Clinically approved treatments for cognitive impairment act primarily on the cholinergic system. The effects of intranasal GLP-1 and [Ser(2)]exendin(1-9) were compared with that of the cholinergic agonist arecoline on spatial learning in a modified version of the MWM (Setlow, B. et al. Learn. Mem, 2000. 7: 187). Rats were first administered vehicle, [Ser(2)]exendin(1-9), GLP-1 or arecoline, and trained for four trials to locate a submerged platform. They were then tested in a single retention trial 48 hours after initial training. There were no differences between treatments in acquisition (FIG. 10A).

rats [4] = experiment: Contextual fear conditioning in rats; format: in vivo, rat; conditions: vs naïve and EGFP controls
Procedure: Fear conditioning was performed in a modified apparatus (MED Associates Inc., St. Albans, Vt.) housed in a sound attenuated cubicle. […] The animal was placed in the chamber and the occurrence of freezing behavior measured every 10 sec for 2 min before a shock was administered (rats, […], 2 sec; mice, 0.5 mA, 5 sec). Freezing behavior was measured again (for 5 min) the next day. The apparatus was cleaned with 1% acetic acid following conditioning of each animal.
To determine whether increasing GLP-1R levels in the hippocampus would enhance learning, rAAV vectors expressing control EGFP vector and GLP-1R were generated and injected into the hippocampus of rats. See Example 1(vi) for protocol. Three weeks following vector injection, robust hippocampal expression was obtained (data not shown) with transgene mRNA expression in the principal cell groups of the hippocampus. […] See Example 1 (vii) for protocol. A separate group of rats treated in the same manner was trained twice daily for 5 days in the MWM. […] The decrease in latency was not due to increased swimming speed (both GLP-1R and EGFP controls were approx. 23 cm/sec) nor stress effects (Table 4). Furthmore, the decreased latency was not due to a disruption in visual acuity and general locomotion and swimming ability, because rats from both groups located a visual platform in a similar manner (approx. 32±3 sec latency). […]

[5] = Blood glucose in fasting rats; format: in vivo, rat; conditions: 24 hour fasting rats, 100 ug intraperitoneal; for Blood glucose mean ± s.e.m.: 20 minutes after administration
Procedure: Gilatide administered intraperitoneally (IP), but not intranasally (IN), lowers blood glucose levels in rats fasted for 24 hours. […] Gilatide's effect on blood glucose in fasting rats was measured. Groups of 24 hour fasting rats (n=5 or 6) were delivered either vehicle, insulin, Gilatide, GLP-1, exendin-4, Insulin A-chain, Insulin B-chain or C-peptide. Glucose levels were measured 20 minutes following intraperitoneal administration. All peptides were given at a dose of 100 ug (Table 2). In this experiment, insulin, the positive control, led to a 44% drop in blood glucose. Gilatide led to a significant drop in glucose level by 14%.

[6] = tested on: rat insulinoma cell line expressing the GLP-1R (RINm5f); experiment: ELISA of culture media for insulin, RINm5f cells; format: cell-based; conditions: 10 nM peptide, 6 hours
Procedure: To confirm biologic activity of Gilatide peptides or analogs, a rat insulinoma cell line expressing the GLP-1R (RINm5f) can be cultured and incubated the Gilatide peptide or analogs followed by an ELISA study as described below.
To confirm biological activity of synthesized Gilatide peptide ([Ser(2)]exendin(1-9)) that was synthesized with a stearic acid residue added to the N-terminus, GLP-1 or [Ser(2)]exendin(1-9) (10 nM) were incubated with the cultured rat insulinoma cell line expressing the GLP-1R (RINm5f) in the presence or absence of the GLP-1R antagonist, exendin(9-39) (10 nM). Rat insulinoma cells (RINm5f) were cultured in 24 well plates and incubated in serum-free medium for 1 hour before treatment. The GLP-1 peptide antagonist exendin (9-39) (10 nM) was added 1 hour prior to GLP-1 (7-36) or [Ser(2)]exendin(1-9) (10 nM). Cells were then incubated for 6 hours in the presence of either GLP-1 or [Ser(2)]exendin(1-9). Media were then removed and assayed for insulin concentrations via ELISA (Pennisula Labs, San Carlos, Calif.).

[7] = Blood glucose in fasting rats; format: in vivo, rat; conditions: for blood glucose: intra-nasal
rats [8] = experiment: Elevated plus maze test (anxiogenic effects); format: in vivo, rat; design: TIME Open Arm / TIME Closed Arm: unit not given here; conditions: 10 ng ICV
[9] = i.c.v., GLP-1 10 ng and 100 ng, [Ser(2)]exendin(1-9) 10 ng

Cc1ncc2n1-c1ccc(Cl)cc1C(c1ccccc1F)=NC2 [Midazolam]
ENTRIES Closed Arm (rats [1]; 1.5 mg/kg IP): 5.1 ± 0.5 | ENTRIES Open Arm (rats [1]; 1.5 mg/kg IP): 6.6 ± 0.7 | TIME Closed Arm (rats [1]; 1.5 mg/kg IP): 89.2 ± 15 | TIME Open Arm (rats [1]; 1.5 mg/kg IP): 141.3 ± 18

COc1cccc(-c2cc(=O)c3ccccc3o2)c1N [PD98059]
effect on enhancement of associative learning by intranasal [Ser(2)]exendin(1-9) (rats [2]; PD98059 5 μg i.c.v. before (PRE) training): not when given before (PRE) training | effect on enhancement of associative learning by intranasal [Ser(2)]exendin(1-9) (rats [2]; PD98059 5 μg i.c.v. immediately after training (POST)): completely blocked

C1CCc2nnnn2CC1 [PTZ]
ENTRIES Closed Arm (rats [1]; 20 mg/kg IP): 1.6 ± 0.4 | ENTRIES Open Arm (rats [1]; 20 mg/kg IP): 0*** | TIME Closed Arm (rats [1]; 20 mg/kg IP): 249.6 ± 13.32 | TIME Open Arm (rats [1]; 20 mg/kg IP): 0***

COC(=O)C1=CCCN(C)C1 [arecoline]
latency to locate the submerged platform in the retention trial (rats [3]; modified MWM, 48 hours after training, [Ser(2)]exendin(1-9) 30 μg intranasal, arecoline 0.3 mg s.c.): significantly reduced the latency | acquisition of spatial learning (rats [3]; modified MWM): did not affect acquisition of spatial learning | freezing behavior in contextual fear conditioning (rats [4]): enhanced freezing behavior

CN1CCCC1c1cccnc1 (stereo not drawn) [nicotine]
latency in PA (rats [2]; 0.3 mg/kg subcutaneously, 24 hours): modestly increased latencies

NC(=O)CC[C@@H]1NC(=O)[C@H](Cc2ccccc2)NC(=O)[C@H](Cc2ccc(O)cc2)NC(=O)[C@@H](N)CSSC[C@@H](C(=O)N2CCC[C@H]2C(=O)N[C@@H](CCCN=C(N)N)C(=O)NCC(N)=O)NC(=O)[C@H](CC(N)=O)NC1=O [vasopressin]
latency in PA (rats [2]; [9]): enhanced latency | latency in the PA test (rats [2]; intranasal, [Ser(2)]exendin(1-9) 3, 10, 30 μg, vasopressin 0.3 μg (FIG. 9A)): increased latency

C peptide
Blood glucose mean ± s.e.m. [5]: 90.3 ± 8.9 mg/dL

HAEGTFTSDVSSVLEGQAAKEFIAWLVKGR [GLP-1, glucagon-like peptide 1]
insulin release into culture media [6]: stimulated insulin release | latency in PA (rats [2]; [9]): enhanced latency | latency (not shown) (rats [3]; 100 ng i.c.v.): decrease latency | distance traveled to locate the platform (rats [3]; i.c.v., vs control rats): significantly reduced distance traveled | swimming speed (rats [3]; i.c.v., vs vehicle): decrease swimming speed | acquisition of spatial learning (rats [3]; modified MWM): did not affect acquisition of spatial learning | Blood glucose mean ± s.e.m. [5]: 89.5 ± 1.1 mg/dL | ENTRIES Closed Arm (rats [1]; 10 μg IN): 4.8 ± 1.0 | ENTRIES Open Arm (rats [1]; 10 μg IN): 1.11 ± 0.3 | TIME Closed Arm (rats [1]; 10 μg IN): 171.8 ± 10^+ | TIME Open Arm (rats [1]; 10 μg IN): 11.6 ± 4 | ENTRIES Closed Arm (rats [1]; 30 μg IN): 2.1 ± 0.4 | ENTRIES Open Arm (rats [1]; 30 μg IN): 1.33 ± 0.4 | TIME Closed Arm (rats [1]; 30 μg IN): 197.2 ± 18 | TIME Open Arm (rats [1]; 30 μg IN): 22.1 ± 10 | anxiogenic effect, time spent in closed arms (rats [1]; intranasal): anxiogenic | blood glucose ([7]; 3 μg): 73.8 ± 2.2 P < 0.05 mg/dl | blood glucose ([7]; 10 μg): 70.6 ± 2.5 P < 0.01 mg/dl | blood glucose ([7]; 30 μg): 71.2 ± 2.1 P < 0.05 mg/dl | fasting blood glucose levels ([7]; intranasal): lowered fasting blood glucose levels | ENTRIES Closed Arm (rats [8]): 2.7 ± 0.5 | ENTRIES Open Arm (rats [8]): 0.7 ± 0.4 | TIME Closed Arm (rats [8]): 198.3 ± 29 | TIME Open Arm (rats [8]): 16.7 ± 11

Insulin
drop in blood glucose ([5]; 20 minutes): 44% | Blood glucose mean ± s.e.m. [5]: 50.7 ± 8.2 (P < 0.01) mg/dl

Insulin A chain: inactive insulin fragment
Blood glucose mean ± s.e.m. [5]: 90.3 ± 4.7 mg/dL

Insulin B chain: inactive insulin fragment
Blood glucose mean ± s.e.m. [5]: 100 ± 4.9 mg/dL
